Common to all, as to format: cell-based
Assay [1] concerns A549. Nature of the assay: MTT cytotoxicity assay. The note with it: Homo sapiens, 48 h. Here is the method:
The effects of compounds on cells proliferation were evaluated using the 3-(4,5-dimethylthiazol-2-yl)-2,5-diphenyltetrazolium bromide (MTT) assay. […] The cells were placed in 96-well plates and treated overnight at 37 °C and 5% CO2. When the cells grew to about 80%, they were treated with different concentrations of compound 3a for 48 h. Then, the culture medium was removed and MTT solution was added. After 4 h, the absorbance values were measured at 490 nm. In addition, the IC50 values were calculated with SPSS (Statistical Product and Service Solutions).
(In general: Tetrazolium dyes change colour on reduction, which living cells bring about.)

Assay [2] has as its system Bcl-2. The assay is described as follows: Western blot. The note with it: HeLa, 24 h, compared with control. Here is the method:
(§1) After HeLa cells (5.5 × 10^5) were seeded in 6-well plates and incubated for 24 h, the cells were treated with different concentrations of compound 3a. Then, the cells were lysed with lysis buffer and centrifuged, and the protein concentration of each sample supernatant was measured with the BCA (bicinchoninic acid) assay. Load the sample protein in equal amount, and stop the sodium dodecyl sulfate-polyacrylamide gel electrophoresis after the bands are separated. The gel was transferred to poly (vinylidene difluoride) membranes (Millipore, Billerica, MA, USA) and blocked with 5% nonfat milk in TBST (20 mM Tris-HCl, 150 mM NaCl, 0.05% Tween 20, pH 8.0, Tween: polyoxyethylene monolaurate sorbaitan) buffer for 1 h. The polyvinylidene fluoride membranes were washed with TBST and incubated with the corresponding primary antibody overnight in a refrigerator at 4 °C. The secondary antibodies were then conjugated with horseradish peroxidase (1:1000 dilution) for 60 min at room temperature. Finally, the blots were visualized with the Amersham ECL ([…]) and western blotting detection reagents according to the manufacturer’s instructions.
On the technique in general: A western blot detects proteins with antibodies after separation by electrophoresis.

In assay [3] the test system is caspase-3. Nature of the assay: Western blot. The note with it: HeLa, 24 h. As to the method: as §1
Assay [4] relates to p21. The assay is described as follows: Western blot. The following applies: HeLa, 24 h, compared with control. Here is the method: as §1
For assay [5], the system named is Bax. Nature of the assay: Western blot. The following applies: HeLa, 24 h, compared with control. As to the method:
as §1

Assay [6] concerns PARP. Nature of the assay: Western blot. The following applies: HeLa, 24 h. As to the method: as §1
Assay [7] concerns caspase-7. The assay is described as follows: Western blot. The note with it: HeLa, 24 h. As to the method:
as §1

The test system of assay [8] is p53. Nature of the assay: Western blot. The following applies: HeLa, 24 h, compared with control. Here is the method: as §1
The subject of assay [9] is GPX4. Nature of the assay: Western blot. The note with it: HeLa. Here is the method:
as §1

Assay [10] concerns FAK. The assay is described as follows: Western blot. The note with it: HeLa, with increasing concentration. Here is the method: as §1
The test system of assay [11] is p38MAPK. The assay is described as follows: Western blot. The following applies: HeLa, 24 h. Here is the method: as §1

One may read the IC50 as the concentration that gives 50% inhibition. As to `CC1(C)[C@@H](O)CC[C@]2(C)[C@H]3C(=O)C=C4[C@@H]5C[C@@](C)(C(=O)Oc6ccc(Br)cc6)CC[C@]5(C)CC[C@@]4(C)[C@]3(C)CC[C@@H]12` [Compound 3a, 4-Bromophenyl 3β-hydroxy-11-oxo-olean-12-en-30-oate], the 50% inhibitory concentration (IC50) in assay [1] amounted to 39.5 ± 8.5 µM. Moreover, in [2], the “expression of anti-apoptotic protein Bcl-2” value is “downregulating”. Also, in [3], the caspase-3 activation entry is reported as “activated”. In addition, the “gray value of p21 protein” value in [4] was “upward trend”. Further, the “expression of pro-apoptotic protein Bax” value in assay [5] is listed as “significantly upregulated”. Further, the “cleavage of PARP” value in [6] is reported as “increased cleavage”. Besides, the caspase-7 expression entry in assay [7] is reported as “upregulation”. The “gray value of p53 protein” value in [8] is reported as “upward trend”. In addition, the “expression of GPX4 protein” value in assay [9] is “downregulated”. For the same molecule, in assay [10], the “expression level of FAK” value was “decreased significantly”. Also, in assay [11], the “expression of p38MAPK” value is recorded as “upregulated”.
